Assay results from patent publication US8163740B2, “6-substituted benzoxazines” (Hoffmann-La Roche Inc., priority 2008, dated 2012).

Target: recombinant human 5-HT5A receptor (Homo sapiens, UniProt P47898)
Test: [3H]LSD radioligand binding assay
Details: [3H]LSD (approximately 1 nM); membranes from HEK-EBNA cells transiently expressing 5-HT5A; Ki by Cheng-Prussoff equation; read-out: Ki
Procedure: A [^3H]LSD radioligand binding assay was used to determine the affinity of the compounds for the recombinant human 5-HT5A receptor, in membranes from transiently (cDNA) expressed 5-HT5A receptors in Human Embryonic Kidney-EBNA (HEK-EBNA) cells. Assay buffer consisted of Tris (50 mM) buffer containing 1 mM EGTA, 10 mM MgCl2 (pH 7.4) and 10 μM pargyline. The binding assay was carried out in 96-well-plates in the presence of [^3H]LSD (approximately 1 nM), approximately 2 μg/well of membrane protein, and 0.5 mg of Ysi-poly-1-lysine SPA beads in a final volume of 200 μl of buffer. Non-specific binding was defined using methiothepin 2 μM. Compounds were tested at 10 concentrations. All assays were conducted in duplicate and repeated at least two times. Assay plates were incubated for 120 min at room temperature before centrifugation. Bound ligand was determined using a Packard Topcount scintillation counter. IC50 values were calculated using a non-linear curve fitting program and Ki values calculated using the Cheng-Prussoff equation.

Sequence of recombinant human 5-HT5A receptor (P47898 whole entry): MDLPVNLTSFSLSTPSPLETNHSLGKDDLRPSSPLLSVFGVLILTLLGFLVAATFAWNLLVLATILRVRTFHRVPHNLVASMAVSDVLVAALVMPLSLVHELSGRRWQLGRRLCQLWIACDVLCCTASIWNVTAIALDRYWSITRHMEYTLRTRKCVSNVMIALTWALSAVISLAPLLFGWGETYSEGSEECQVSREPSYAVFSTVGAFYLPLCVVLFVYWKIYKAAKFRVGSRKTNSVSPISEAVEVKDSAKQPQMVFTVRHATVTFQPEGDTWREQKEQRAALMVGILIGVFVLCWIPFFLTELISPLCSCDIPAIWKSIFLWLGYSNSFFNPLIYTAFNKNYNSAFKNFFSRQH

| Compound | Ki |
| --- | --- |
| COc1cccc2c1C(NC1=Nc3ccc([N+](=O)[O-])cc3CO1)CO2 (racemic) [Example 5, rac-(4-Methoxy-2,3-dihydro-benzofuran-3-yl)-(6-nitro-4H-benzo[d][1,3]oxazin-2-yl)-amine] | 368 nM |
| COc1cccc2c1C(NC1=Nc3ccc(N)cc3CO1)CO2 (racemic) [Example 6, rac-N^2-(4-Methoxy-2,3-dihydro-benzofuran-3-yl)-4H-benzo[d][1,3]oxazine-2,6-diamine] | 7.83 nM |
| COc1cccc2c1C(NC1=Nc3ccc(NC(=O)CCl)cc3CO1)CO2 (racemic) [Example 8, rac-2-Chloro-N-[2-(4-methoxy-2,3-dihydro-benzofuran-3-ylamino)-4H-benzo[d][1,3]oxazin-6-yl]-acetamide] | 20.7 nM |
| COc1cccc2c1C(NC1=Nc3ccc(NC(=O)CN4CCN(C)CC4)cc3CO1)CO2 (racemic) [Example 9, rac-N-[2-(4-Methoxy-2,3-dihydro-benzofuran-3-ylamino)-4H-benzo[d][1,3]oxazin-6-yl]-2-(4-methyl-piperazin-1-yl)-acetamide] | 5.69 nM |
| COc1cccc2c1C(NC1=Nc3ccc(N)cc3CO1)CC2 (racemic) [Example 10, rac-N^2-(7-Methoxy-indan-1-yl)-4H-benzo[d][1,3]oxazine-2,6-diamine] | 1.2 nM |
| Nc1ccc2c(c1)COC(NC1CCc3cc(F)ccc31)=N2 (racemic) [Example 11, rac-N^2-(5-Fluoro-indan-1-yl)-4H-benzo[d][1,3]oxazine-2,6-diamine] | 1.26 nM |
| COc1cccc2c1C(NC1=Nc3ccc(NC(=O)CN4CCN(C(C)C)CC4)cc3CO1)CO2 (racemic) [Example 12, rac-2-(4-Isopropyl-piperazin-1-yl)-N-[2-(4-methoxy-2,3-dihydro-benzofuran-3-ylamino)-4H-benzo[d][1,3]oxazin-6-yl]-acetamide] | 9.28 nM |
| COc1cccc2c1C(NC1=Nc3ccc(NC(=O)CN4CCOCC4)cc3CO1)CO2 (racemic) [Example 13, rac-N-[2-(4-Methoxy-2,3-dihydro-benzofuran-3-ylamino)-4H-benzo[d][1,3]oxazin-6-yl]-2-morpholin-4-yl-acetamide] | 40.6 nM |
| COc1cccc2c1C(NC1=Nc3ccc(NC(=O)NC4CCN(C(C)C)CC4)cc3CO1)CO2 (racemic) [Example 14, rac-1-(1-Isopropyl-piperidin-4-yl)-3-[2-(4-methoxy-2,3-dihydro-benzofuran-3-ylamino)-4H-benzo[d][1,3]oxazin-6-yl]-urea] | 4.37 nM |
| COc1cccc2c1C(NC1=Nc3ccc(NC(=O)N(C)C4CCN(C(C)C)CC4)cc3CO1)CO2 (racemic) [Example 15, rac-1-(1-Isopropyl-piperidin-4-yl)-3-[2-(4-methoxy-2,3-dihydro-benzofuran-3-ylamino)-4H-benzo[d][1,3]oxazin-6-yl]-1-methyl-urea] | 6.08 nM |
| COc1cccc2c1C(NC1=Nc3ccc(NC(=O)NC(C)C)cc3CO1)CO2 (racemic) [Example 16, rac-1-Isopropyl-3-[2-(4-methoxy-2,3-dihydro-benzofuran-3-ylamino)-4H-benzo[d][1,3]oxazin-6-yl]-urea] | 2.93 nM |
| COCC(=O)Nc1ccc2c(c1)COC(NC1COc3cccc(OC)c31)=N2 (racemic) [Example 17, rac-2-Methoxy-N-[2-(4-methoxy-2,3-dihydro-benzofuran-3-ylamino)-4H-benzo[d][1,3]oxazin-6-yl]-acetamide] | 26.1 nM |
| O=C(Nc1ccc2c(c1)COC(NC1CCc3cc(F)ccc31)=N2)C1CC1 (racemic) [Example 20, rac-Cyclopropanecarboxylic acid [2-(5-fluoro-indan-1-ylamino)-4H-benzo[d][1,3]oxazin-6-yl]-amide] | 1.36 nM |
| COCC(=O)Nc1ccc2c(c1)COC(NC1CCc3cc(F)ccc31)=N2 (racemic) [Example 21, rac-N-[2-(5-Fluoro-indan-1-ylamino)-4H-benzo[d][1,3]oxazin-6-yl]-2-methoxy-acetamide] | 5.5 nM |
| COc1cccc2c1C(NC1=Nc3ccc(N)cc3CO1)CCC2 (racemic) [Example 22, rac-N^2-(8-Methoxy-1,2,3,4-tetrahydro-naphthalen-1-yl)-4H-benzo[d][1,3]oxazine-2,6-diamine] | 7.72 nM |
| COc1cccc2c1C(NC1=Nc3ccc(NC(=O)C4CC4)cc3CO1)CCC2 (racemic) [Example 23, rac-Cyclopropanecarboxylic acid [2-(8-methoxy-1,2,3,4-tetrahydro-naphthalen-1-ylamino)-4H-benzo[d][1,3]oxazin-6-yl]-amide] | 1.85 nM |
| COCC(=O)Nc1ccc2c(c1)COC(NC1CCc3cccc(OC)c31)=N2 (racemic) [Example 24, rac-2-Methoxy-N-[2-(7-methoxy-indan-1-ylamino)-4H-benzo[d][1,3]oxazin-6-yl]-acetamide] | 4.83 nM |

The remaining lines, values ahead:

| Ki | Compound |
| --- | --- |
| 16.1 nM | COC[C@@H]1CN(CC(=O)Nc2ccc3c(c2)COC(N[C@@H]2CCc4ccccc42)=N3)C[C@@H](COC)N1C (mixture of isomers) [Example 158, 2-((3SR,5SR)-3,5-Bis-(methoxymethyl)-4-methyl-piperazin-1-yl)-N-[2-((R)-indan-1-ylamino)-4H-benzo[d][1,3]oxazin-6-yl]-acetamide] |
| 1.06 nM | COc1cccc2c1C(NC1=Nc3ccc(NC(=O)C4CC4)cc3CO1)CC2 (racemic) [Example 25, rac-Cyclopropanecarboxylic acid [2-(7-methoxy-indan-1-ylamino)-4H-benzo[d][1,3]oxazin-6-yl]-amide] |
| 4.26 nM | Nc1ccc2c(c1)COC(NC1COc3cc(F)ccc31)=N2 (racemic) [Example 34, rac-N^2-(6-Fluoro-2,3-dihydro-benzofuran-3-yl)-4H-benzo[d][1,3]oxazine-2,6-diamine] |
| 56.4 nM | COCCNCC(=O)Nc1ccc2c(c1)COC(NC1COc3cc(F)ccc31)=N2 (racemic) [Example 42, rac-N-[2-(6-Fluoro-2,3-dihydro-benzofuran-3-ylamino)-4H-benzo[d][1,3]oxazin-6-yl]-2-(2-methoxy-ethylamino)-acetamide] |
| 50.3 nM | CC(C)(O)CNCC(=O)Nc1ccc2c(c1)COC(NC1COc3cc(F)ccc31)=N2 (racemic) [Example 43, rac-N-[2-(6-Fluoro-2,3-dihydro-benzofuran-3-ylamino)-4H-benzo[d][1,3]oxazin-6-yl]-2-(2-hydroxy-2-methyl-propylamino)-acetamide] |
| 6.5 nM | CN1CCN(CC(=O)Nc2ccc3c(c2)COC(NC2COc4cc(F)ccc42)=N3)CC1 (racemic) [Example 44, rac-N-[2-(6-Fluoro-2,3-dihydro-benzofuran-3-ylamino)-4H-benzo[d][1,3]oxazin-6-yl]-2-(4-methyl-piperazin-1-yl)-acetamide] |
| 40.7 nM | O=C(CN1CCOCC1)Nc1ccc2c(c1)COC(NC1COc3cc(F)ccc31)=N2 (racemic) [Example 45, rac-N-[2-(6-Fluoro-2,3-dihydro-benzofuran-3-ylamino)-4H-benzo[d][1,3]oxazin-6-yl]-2-morpholin-4-yl-acetamide] |
| 21.1 nM | COc1cccc2c1C(NC1=Nc3ccc(NS(=O)(=O)N(C)C)cc3CO1)CO2 (racemic) [Example 49, rac-N,N-(Dimethyl)-N′-{2-(4-Methoxy-2,3-dihydro-benzofuran-3-ylamino)-4H-benzo[d][1,3]oxazin-6-yl}-sulfamide] |
